Measured values taken from patent publication US10683272B2 (THE JOHNS HOPKINS UNIVERSITY, priority 2014, dated 2020).

System: PSMA+ PC-3 PIP and PSMA− PC-3 flu tumors
Experiment: small animal PET-CT imaging
Type: in vivo, NOD/SCID mice
Details: PET-CT
Description: Mice (n=3 for ^86Y-4 or ^86Y-6 and n=2 for ^86Y-5) were injected via the tail vein with 3.33-6.21 MBq (90-168 μCi) of radiotracer formulated in 100 μL of saline at pH ˜7. […] At different time points, anesthetized individual mice were placed in the prone position on the scanner gantry and secured with medical tape while the anesthesia flow rate was increased to 0.8 L/min. Images were reconstructed using the FORE/2D-OSEM method (two iterations, 16 subsets) and included correction for radioactive decay, scanner dead time, and scattered radiation. Partial volume correction (PVC) was not performed. After each PET scan, a CT scan was acquired for anatomic co-registration. To facilitate PET and CT image co-registration, a special animal bed was employed which fits both the PET and CT scanners. The animals were under anesthesia and immobilized when moving between scanners as well as during both scans. The reconstructed PET and CT images were then manually co-registered through rigid transformation, by aligning natural landmarks (such as the animal limbs and the bed contour) using the AMIDE software (from sourceforge.net/amide).
Dynamic, whole-body PET and CT images were acquired on an eXplore VISTA small-animal PET (GE Healthcare, Little Chalfont, Buckinghamshire, UK) and an X-SPECT small SPECT/CT system (Gamma Medica Ideas, Northridge, Calif.), respectively.

SMILES: O=C([O-])CN1CCN(CC(=O)[O-])CCN(CC(=O)[O-])C(Cc2ccc(NC(=S)NCCCCNC(=O)CCCCCCC(=O)NCCCC[C@H](NC(=O)N[C@@H](CCC(=O)O)C(=O)O)C(=O)O)cc2)CN(CC(=O)[O-])CC1.[86Y+3] (stereo partly shown) [^86Y-6]
- earliest time of clear delineation of PSMA+ PC-3 PIP tumor: 15 min
